From paper PMC9288506, “Compounds activating VCP D1 ATPase enhance both autophagic and proteasomal neurotoxic protein clearance” (Nature Communications, 2022)

What was measured:
Assay in all cases: biochemical
Design in all cases: Thermo Fisher in vitro kinase panel, per cent inhibition of kinase activity at 10 uM
ACVR1B (ALK4) = ACVR1B (ALK4) (Homo sapiens, UniProt P36896)
Method: (§1) Kinase profiling of SMER28 and analogs SMER28 and analogs were tested at 10 µM in a panel of 123 kinases at ThermoFisher Scientific. Follow-up of selected kinases for SMER28 and analogs was also performed at ThermoFisher Scientific. Data are shown in Supplementary Data 2 and 3. […] An inhibition of PIK3C could induce autophagy, mediated by signaling through the AKT/mTOR axis[45].

BLK = BLK (Homo sapiens, UniProt P51451)
Method: as §1

BMX = BMX (Homo sapiens, UniProt P51813)
Method: as §1

BTK = BTK (Homo sapiens, UniProt Q06187)
Chain of BTK (Q06187 whole entry): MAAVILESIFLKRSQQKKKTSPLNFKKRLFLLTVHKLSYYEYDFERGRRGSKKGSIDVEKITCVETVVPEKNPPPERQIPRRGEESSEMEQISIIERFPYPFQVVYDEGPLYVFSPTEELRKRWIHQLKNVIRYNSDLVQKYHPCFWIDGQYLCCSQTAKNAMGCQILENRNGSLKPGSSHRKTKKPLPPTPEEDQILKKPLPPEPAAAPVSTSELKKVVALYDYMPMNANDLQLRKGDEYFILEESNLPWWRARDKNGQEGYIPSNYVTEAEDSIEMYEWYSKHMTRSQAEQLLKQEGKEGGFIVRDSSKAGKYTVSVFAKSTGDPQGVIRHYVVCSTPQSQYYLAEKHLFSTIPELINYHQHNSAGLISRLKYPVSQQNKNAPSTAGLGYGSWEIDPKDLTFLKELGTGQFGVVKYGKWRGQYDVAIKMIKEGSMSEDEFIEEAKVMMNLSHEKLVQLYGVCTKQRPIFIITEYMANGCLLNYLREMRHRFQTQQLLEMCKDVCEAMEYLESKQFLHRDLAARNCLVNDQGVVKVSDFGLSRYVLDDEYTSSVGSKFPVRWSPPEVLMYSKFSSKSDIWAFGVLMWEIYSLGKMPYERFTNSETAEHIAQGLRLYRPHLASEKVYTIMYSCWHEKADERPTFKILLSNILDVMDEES
Method: as §1

CAMK1 (CaMK1) = CAMK1 (CaMK1) (Homo sapiens, UniProt Q14012)
Method: as §1

CDK7/cyclin H/MNAT1 = CDK7/cyclin H/MNAT1 (Homo sapiens, UniProt P50613)
Method: as §1

DNA-PK = molecular target: T1, DNA-PK (Homo sapiens, UniProt P78527)
T1 construct: gene PRKDC
Method: as §1

EGFR (ErbB1) = EGFR (ErbB1) (Homo sapiens, UniProt P00533)
Method: as §1

EPHB1 = EPHB1 (Homo sapiens, UniProt P54762)
Method: as §1

FGFR1 = FGFR1 (Homo sapiens, UniProt P11362)
Chain of FGFR1 (P11362 whole entry): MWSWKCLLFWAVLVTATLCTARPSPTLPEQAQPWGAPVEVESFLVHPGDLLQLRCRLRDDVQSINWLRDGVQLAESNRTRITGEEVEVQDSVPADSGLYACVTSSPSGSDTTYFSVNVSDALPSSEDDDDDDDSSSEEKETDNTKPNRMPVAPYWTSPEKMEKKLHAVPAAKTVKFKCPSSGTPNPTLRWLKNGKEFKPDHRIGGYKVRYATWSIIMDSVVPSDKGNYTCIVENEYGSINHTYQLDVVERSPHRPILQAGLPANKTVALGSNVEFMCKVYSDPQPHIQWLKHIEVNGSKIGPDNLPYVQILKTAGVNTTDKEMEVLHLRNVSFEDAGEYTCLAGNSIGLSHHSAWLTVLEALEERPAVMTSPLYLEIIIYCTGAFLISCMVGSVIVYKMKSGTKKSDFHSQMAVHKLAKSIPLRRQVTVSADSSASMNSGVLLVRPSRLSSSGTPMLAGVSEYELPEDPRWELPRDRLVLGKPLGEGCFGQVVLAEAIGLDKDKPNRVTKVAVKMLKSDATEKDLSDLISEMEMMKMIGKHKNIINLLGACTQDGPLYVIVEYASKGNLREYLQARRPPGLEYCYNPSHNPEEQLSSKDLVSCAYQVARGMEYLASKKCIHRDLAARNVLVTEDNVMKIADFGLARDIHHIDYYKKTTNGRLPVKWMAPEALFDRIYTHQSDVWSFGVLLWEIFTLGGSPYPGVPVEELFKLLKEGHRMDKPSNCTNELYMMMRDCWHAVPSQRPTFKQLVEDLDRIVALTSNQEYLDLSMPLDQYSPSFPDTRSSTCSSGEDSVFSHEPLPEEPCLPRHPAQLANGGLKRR
Method: as §1

FGFR1 V561M = FGFR1 V561M (Homo sapiens, UniProt P11362, V561M)
Chain of FGFR1 V561M (P11362 whole entry V561M): as the sequence (P11362 whole entry) above, with V561M counted along it
Method: as §1

FGFR3 = FGFR3 (Homo sapiens, UniProt P22607)
Method: as §1

FGFR4 = FGFR4 (Homo sapiens, UniProt P22455)
Method: as §1

FLT3 = FLT3 (Homo sapiens, UniProt P36888)
Method: as §1

FYN = FYN (Homo sapiens, UniProt P06241)
Method: as §1

IKBKB (IKK beta) = IKBKB (IKK beta) (Homo sapiens, UniProt O14920)
Chain of IKBKB (IKK beta) (O14920 whole entry): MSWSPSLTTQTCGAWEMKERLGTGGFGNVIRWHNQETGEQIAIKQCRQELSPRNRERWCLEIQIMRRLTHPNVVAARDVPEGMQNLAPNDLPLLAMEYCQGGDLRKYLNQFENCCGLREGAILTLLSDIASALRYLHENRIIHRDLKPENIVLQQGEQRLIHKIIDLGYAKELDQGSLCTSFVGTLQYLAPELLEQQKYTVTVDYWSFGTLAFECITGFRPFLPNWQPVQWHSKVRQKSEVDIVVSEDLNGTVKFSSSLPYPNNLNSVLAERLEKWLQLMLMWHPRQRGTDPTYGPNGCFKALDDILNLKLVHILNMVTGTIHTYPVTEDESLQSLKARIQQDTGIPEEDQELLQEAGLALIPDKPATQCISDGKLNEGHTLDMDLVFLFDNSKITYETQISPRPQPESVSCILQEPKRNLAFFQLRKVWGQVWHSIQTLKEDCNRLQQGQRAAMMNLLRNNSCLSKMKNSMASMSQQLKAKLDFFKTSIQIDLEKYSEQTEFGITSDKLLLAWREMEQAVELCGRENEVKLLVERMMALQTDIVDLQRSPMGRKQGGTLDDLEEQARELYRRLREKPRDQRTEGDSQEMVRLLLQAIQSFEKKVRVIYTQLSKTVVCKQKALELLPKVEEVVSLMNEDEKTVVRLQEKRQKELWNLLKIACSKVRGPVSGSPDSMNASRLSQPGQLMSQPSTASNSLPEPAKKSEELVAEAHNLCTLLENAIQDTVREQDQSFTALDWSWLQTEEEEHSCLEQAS
Method: as §1

INSR = INSR (Homo sapiens, UniProt P06213)
Method: as §1

JAK1 = JAK1 (Homo sapiens, UniProt P23458)
Chain of JAK1 (P23458 whole entry): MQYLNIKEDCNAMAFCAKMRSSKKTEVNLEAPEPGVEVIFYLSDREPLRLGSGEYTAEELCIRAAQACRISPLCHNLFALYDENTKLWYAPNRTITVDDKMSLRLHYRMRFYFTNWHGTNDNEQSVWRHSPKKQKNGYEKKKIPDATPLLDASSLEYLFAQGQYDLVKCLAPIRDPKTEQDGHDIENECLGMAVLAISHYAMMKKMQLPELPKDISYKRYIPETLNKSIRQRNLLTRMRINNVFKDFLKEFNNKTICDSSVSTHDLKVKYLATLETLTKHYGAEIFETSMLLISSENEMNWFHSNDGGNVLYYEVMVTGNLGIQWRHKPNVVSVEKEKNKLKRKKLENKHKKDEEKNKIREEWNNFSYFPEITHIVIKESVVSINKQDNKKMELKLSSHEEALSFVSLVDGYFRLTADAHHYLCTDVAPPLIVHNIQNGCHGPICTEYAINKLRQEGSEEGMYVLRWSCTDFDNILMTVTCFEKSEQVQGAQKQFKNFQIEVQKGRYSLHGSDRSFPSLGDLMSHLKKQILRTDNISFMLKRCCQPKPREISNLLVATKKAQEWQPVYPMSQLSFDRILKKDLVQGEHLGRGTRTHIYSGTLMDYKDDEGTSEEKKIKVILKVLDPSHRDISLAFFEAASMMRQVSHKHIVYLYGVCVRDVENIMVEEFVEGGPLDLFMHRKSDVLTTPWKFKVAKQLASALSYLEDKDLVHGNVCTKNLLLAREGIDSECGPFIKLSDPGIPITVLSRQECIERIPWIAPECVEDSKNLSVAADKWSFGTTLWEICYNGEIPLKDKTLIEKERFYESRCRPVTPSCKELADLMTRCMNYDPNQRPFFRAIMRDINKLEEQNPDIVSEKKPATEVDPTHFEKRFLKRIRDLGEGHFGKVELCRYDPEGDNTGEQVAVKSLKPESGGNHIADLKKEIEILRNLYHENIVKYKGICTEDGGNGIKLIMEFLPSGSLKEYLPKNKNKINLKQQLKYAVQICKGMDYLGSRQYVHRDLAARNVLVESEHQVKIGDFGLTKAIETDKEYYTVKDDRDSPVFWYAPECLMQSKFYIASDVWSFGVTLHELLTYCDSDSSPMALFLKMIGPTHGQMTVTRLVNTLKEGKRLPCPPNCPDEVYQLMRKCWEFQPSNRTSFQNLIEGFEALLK
Method: as §1

[1] = molecular target: T2, MAPK14 (p38 alpha) Direct (Homo sapiens, UniProt Q16539)
T2 construct: Direct
T2 sequence (Q16539 whole entry): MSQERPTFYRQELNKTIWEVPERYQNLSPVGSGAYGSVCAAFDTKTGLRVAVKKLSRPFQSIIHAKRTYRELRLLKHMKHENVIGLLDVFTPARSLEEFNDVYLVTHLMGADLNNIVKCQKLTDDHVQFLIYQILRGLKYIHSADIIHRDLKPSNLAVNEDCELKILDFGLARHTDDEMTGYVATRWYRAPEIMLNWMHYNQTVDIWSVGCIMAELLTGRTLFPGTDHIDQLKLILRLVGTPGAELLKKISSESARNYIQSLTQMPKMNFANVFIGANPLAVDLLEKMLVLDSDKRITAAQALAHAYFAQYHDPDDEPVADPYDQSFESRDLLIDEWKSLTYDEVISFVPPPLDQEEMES
Method: as §1

MAPK8 (JNK1) = MAPK8 (JNK1) (Homo sapiens, UniProt P45983)
Method: as §1

NUAK1 (ARK5) = NUAK1 (ARK5) (Homo sapiens, UniProt O60285)
Chain of NUAK1 (ARK5) (O60285 whole entry): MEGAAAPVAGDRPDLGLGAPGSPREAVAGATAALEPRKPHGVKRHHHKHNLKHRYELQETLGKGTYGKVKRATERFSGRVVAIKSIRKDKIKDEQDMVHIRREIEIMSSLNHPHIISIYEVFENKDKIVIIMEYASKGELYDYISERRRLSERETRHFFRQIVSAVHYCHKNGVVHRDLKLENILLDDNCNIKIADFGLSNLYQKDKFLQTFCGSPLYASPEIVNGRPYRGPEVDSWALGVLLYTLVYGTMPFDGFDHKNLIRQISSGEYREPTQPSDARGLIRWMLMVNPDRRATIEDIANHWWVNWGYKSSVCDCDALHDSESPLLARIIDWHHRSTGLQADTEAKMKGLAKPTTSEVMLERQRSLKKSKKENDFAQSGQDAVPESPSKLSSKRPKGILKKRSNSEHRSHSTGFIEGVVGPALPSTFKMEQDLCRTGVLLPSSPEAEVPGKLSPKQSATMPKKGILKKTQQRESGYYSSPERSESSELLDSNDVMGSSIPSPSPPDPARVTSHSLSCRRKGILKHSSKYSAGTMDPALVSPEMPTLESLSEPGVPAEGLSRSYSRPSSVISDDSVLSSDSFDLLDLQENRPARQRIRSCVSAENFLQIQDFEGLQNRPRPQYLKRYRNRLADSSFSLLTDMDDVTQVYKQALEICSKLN
Method: as §1

PIM2 = PIM2 (Homo sapiens, UniProt Q9P1W9)
Method: as §1

PRKACA (PKA) = PRKACA (PKA) (Homo sapiens, UniProt P17612)
Method: as §1

RET V804L = RET V804L (Homo sapiens, UniProt P07949, V804L)
Method: as §1

RPS6KA5 (MSK1) = RPS6KA5 (MSK1) (Homo sapiens, UniProt O75582)
Method: as §1

STK4 (MST1) = STK4 (MST1) (Homo sapiens, UniProt Q13043)
Chain of STK4 (MST1) (Q13043 whole entry): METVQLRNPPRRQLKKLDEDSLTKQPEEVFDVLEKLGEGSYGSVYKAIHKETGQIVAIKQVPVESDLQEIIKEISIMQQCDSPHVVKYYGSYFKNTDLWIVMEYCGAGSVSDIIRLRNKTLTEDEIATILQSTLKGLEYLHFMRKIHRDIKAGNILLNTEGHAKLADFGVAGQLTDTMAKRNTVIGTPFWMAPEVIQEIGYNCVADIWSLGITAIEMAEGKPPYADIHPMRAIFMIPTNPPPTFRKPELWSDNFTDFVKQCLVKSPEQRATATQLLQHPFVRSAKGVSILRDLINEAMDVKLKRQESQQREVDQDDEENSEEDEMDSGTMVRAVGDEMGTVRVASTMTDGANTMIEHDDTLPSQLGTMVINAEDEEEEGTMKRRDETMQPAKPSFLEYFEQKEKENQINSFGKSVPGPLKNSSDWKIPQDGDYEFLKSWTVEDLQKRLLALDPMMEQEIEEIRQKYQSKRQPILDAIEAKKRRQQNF
Method: as §1

C=CCNc1ncnc2ccc(Br)cc12 [SMER28]
inhibition at 10 µM (ACVR1B (ALK4)): -19%
inhibition at 10 µM (BLK): 4%
inhibition at 10 µM (BMX): 11%
inhibition at 10 µM (BTK): 8%
inhibition at 10 µM (CAMK1 (CaMK1)): 13%
inhibition at 10 µM (CDK7/cyclin H/MNAT1): 34%
inhibition at 10 µM (DNA-PK): 37%
inhibition at 10 µM (EGFR (ErbB1)): 12%
inhibition at 10 µM (EPHB1): 6%
inhibition at 10 µM (FGFR1): 27%
inhibition at 10 µM (FGFR1 V561M): 9%
inhibition at 10 µM (FGFR3): -7%
inhibition at 10 µM (FGFR4): 7%
inhibition at 10 µM (FLT3): 40%
inhibition at 10 µM (FYN): 9%
inhibition at 10 µM (IKBKB (IKK beta)): 17%
inhibition at 10 µM (INSR): -1%
inhibition at 10 µM (JAK1): -13%
inhibition at 10 µM [1]: 7%
inhibition at 10 µM (MAPK8 (JNK1)): -2%
inhibition at 10 µM (NUAK1 (ARK5)): 40%
inhibition at 10 µM (PIM2): -15%
inhibition at 10 µM (PRKACA (PKA)): 10%
inhibition at 10 µM (RET V804L): 30%
inhibition at 10 µM (RPS6KA5 (MSK1)): -3%
inhibition at 10 µM (STK4 (MST1)): 11%
